Test results reported in article PMC10901353, “Identification of a potent and selective LAPTc inhibitor by RapidFire-Mass Spectrometry, with antichagasic activity” (PLOS Neglected Tropical Diseases, 2024).
“And” between values parts separate entries of the source, which are not always exact repeats. Identical values can stand only once. Like-named read-outs stand apart in the source and are kept apart here.

Key:
[1] = tested on: PfA-M17 (M17 LAP from Plasmodium falciparum); details: cited from earlier work
[2] = target: T1, LAPTc (acidic M17 leucyl-aminopeptidase from T. cruzi) (Trypanosoma cruzi, UniProt V5BWE3); experiment: High-throughput single point screening for LAPTc inhibitors by RapidFire-MS; assay type: biochemical; details: primary screen, 30 μM, single replicate; read-out: Percent Inhibition
T1 sequence (V5BWE3 entry or part of it): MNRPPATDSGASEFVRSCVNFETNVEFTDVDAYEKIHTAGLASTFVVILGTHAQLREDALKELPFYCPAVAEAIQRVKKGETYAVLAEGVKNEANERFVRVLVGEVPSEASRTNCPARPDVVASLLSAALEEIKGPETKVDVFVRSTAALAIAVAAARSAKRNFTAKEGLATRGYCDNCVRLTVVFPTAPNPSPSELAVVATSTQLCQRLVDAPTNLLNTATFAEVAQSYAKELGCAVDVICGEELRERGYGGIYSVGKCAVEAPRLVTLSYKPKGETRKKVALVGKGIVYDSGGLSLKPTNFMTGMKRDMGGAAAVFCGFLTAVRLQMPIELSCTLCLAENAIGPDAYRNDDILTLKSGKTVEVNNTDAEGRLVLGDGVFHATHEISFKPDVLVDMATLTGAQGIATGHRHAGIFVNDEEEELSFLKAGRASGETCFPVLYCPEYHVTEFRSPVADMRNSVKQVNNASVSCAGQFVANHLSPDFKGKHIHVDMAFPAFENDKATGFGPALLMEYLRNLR
Procedure: (§1) This assay was previously described. The assay was performed in 384-well clear F-bottom polypropylene plates with a final reaction volume of 15 μL. The reaction mixture contained 7.5 μL LAPTc in 50 mM Tris-HCl, pH 7.5, 0.005% NP-40 and 7.5 μL LSTVIVR peptide substrate (Cambridge Research Biochemicals, Billingham, UK) in the same buffer was added to start the reaction. The reaction was performed at room temperature for 40 min and then stopped with 85 μL 1% formic acid containing 0.15 mg/mL STVIVR* internal standard (Cambridge Research Biochemicals, Billingham, UK).
Single point screening of a library of 3329 compounds was performed in 384-well clear plates (Greiner 781101) at room temperature. Test compounds (45 nL in DMSO) were transferred to assay plates by an ECHO 550 acoustic dispenser (Labcyte). LAPTc was tested at 3 nM with 150 μM (approximately the value of the apparent Michaelis-Menten constant -appKM- [16]) LSTVIVR peptide substrate in a 40 min reaction. Before addition of substrate, LAPTc was preincubated with 45 nL compounds or DMSO for 15 min. Compounds, dissolved in DMSO, were tested at 30 μM. Controls without compound (the same volume of DMSO, 0% inhibitory effect) and without enzyme and compound (100% inhibitory effect) were prepared. The experiment was performed without replicates. The remaining experimental conditions were maintained as previously described. Data were processed and analysed through ActivityBase XE (IDBS). The selection criterion for hits in this single point screen was percent inhibition larger than the mean plus three standard deviations. All primary screening data are available in ChEMBL (see Data Availability statement).

Vero cells = experiment: Cytotoxicity against infected Vero host cells in T. cruzi intracellular assay; assay type: cell-based, African green monkey; set-up: Max Effect (Vero): unit not given here; details: for Max Effect (Vero) / pEC50 (Vero): individual replicates
Procedure: (§2) Briefly, these cells were maintained at 37°C and 5% CO2 in MEM supplemented with 10% FCS, sub-culturing every 2–3 days at a ratio of 1:5 after 5 min treatment with Trypsin-EDTA (Gibco).
(§3) This assay was performed as described with the only modification that treatment was 96 h instead of 72 h. Briefly, Vero cells were infected overnight with tissue culture derived T. cruzi trypomastigotes in T225 tissue culture flasks (MOI 5). Any remaining free trypomastigotes were washed away with serum free MEM and the infected Vero cells were harvested by trypsinisation. Compounds (250 nL in DMSO) were dispensed using LabCyte ECHO (Beckman Coulter Life Sciences, USA) into each well of Corning black flat bottomed 384-well plates (Corning, USA). […] The infected Vero cells were then plated into the plates containing the compounds, at 4,000 cells per well in MEM media with 1% FCS. […] The plates were imaged on a Perkin Elmer Operetta high-content imaging system using a 20× objective. Images were analyzed using the Columbus system (Perkin Elmer). The algorithm first identified the Vero nuclei followed by demarcation of the cytoplasm and identification of intracellular amastigotes. This algorithm reported percent infected Vero cell and total number of Vero cells. All potency determinations were carried out in at least three independent replicates and are reported as pEC50 +/- standard deviation. pEC50 = -log(EC50[M]).

[3] = as above; assay type: cell-based, African green monkey; set-up: Max Effect (Vero): unit not given here; details: African green monkey, infected Vero host cells, 96 h, read-out: pCC50 (Vero) +/- StDev (converted)
Procedure: as §2, §3

[4] = Cytotoxicity assay on human HepG2 cells (resazurin); assay type: cell-based; details: human, 72 h
HepG2 cells = experiment: as above; assay type: cell-based; details: for Max Effect (HepG2) / pEC50 (HepG2): individual replicates
[5] = tested on: intracellular T. cruzi amastigotes; experiment: T. cruzi intracellular assay (high-content imaging, infected Vero cells); assay type: cell-based, Trypanosoma cruzi; set-up: Max Effect (T. cruzi): unit not given here; details: for EC50 / Emax: Trypanosoma cruzi, Vero; for Emax: read-out: Max Effect (T. cruzi)
Procedure: T. cruzi parasite, TcI strain Silvio X10/7 subclone A1 [34] was maintained in culture as previously described. Parasites were maintained as amastigotes by passaging on a weekly basis in Vero cells. Culture maintenance infections were carried out at an MOI (multiplicity of infection) of 1.5.
This assay was performed as described with the only modification that treatment was 96 h instead of 72 h. Briefly, Vero cells were infected overnight with tissue culture derived T. cruzi trypomastigotes in T225 tissue culture flasks (MOI 5). Any remaining free trypomastigotes were washed away with serum free MEM and the infected Vero cells were harvested by trypsinisation. Compounds (250 nL in DMSO) were dispensed using LabCyte ECHO (Beckman Coulter Life Sciences, USA) into each well of Corning black flat bottomed 384-well plates (Corning, USA). […] The infected Vero cells were then plated into the plates containing the compounds, at 4,000 cells per well in MEM media with 1% FCS. After 96 h incubation at 37°C in presence of 5% CO2, the plates were fixed with 4% formaldehyde for 20 min at room temperature and stained with 5 μg/mL Hoechst 33342. The plates were imaged on a Perkin Elmer Operetta high-content imaging system using a 20× objective. Images were analyzed using the Columbus system (Perkin Elmer). The algorithm first identified the Vero nuclei followed by demarcation of the cytoplasm and identification of intracellular amastigotes. This algorithm reported percent infected Vero cell and total number of Vero cells. All potency determinations were carried out in at least three independent replicates and are reported as pEC50 +/- standard deviation. pEC50 = -log(EC50[M]).

[6] = target: T1, LAPTc (acidic M17 leucyl-aminopeptidase from T. cruzi); experiment: Dose-response studies for LAPTc inhibition by RapidFire-MS; assay type: biochemical; details: for Emax: read-out: Maximum Effect; for Hit Confirmation: whether primary screen hit confirmed in potency experiment
Procedure: as §1
To generate half-maximum inhibitory concentration (IC50) data for LAPTc, 10-point dose-response curves with 100 μM as highest concentration and 1:2 dilution in DMSO (0.195–100 μM range) were prepared in 384 well plates. All other experimental conditions were as described above. All IC50 curve fitting was performed by four-parameter logistic dose-response curve fit using ActivityBase XE (IDBS). At least three replicates were generated for each hit compound.

[7] = Vero cells infected with T. cruzi
[8] = HepG2 cells, two independent experiments, read-out: pCC50 (HepG2) (converted)
[9] = 96 h, four independent experiments, read-out: pEC50 (T. cruzi) +/- StDev (converted)
[10] = individual replicates, read-out: pEC50 (T. cruzi) (converted)
[11] = Initial hit confirmation, single replicate
[12] = Initial hit confirmation, single replicate, read-out: pIC50 (converted)
[13] = Replicate data generation, individual replicates
[14] = Replicate data generation, individual replicates, read-out: pIC50 (converted)
[15] = average of four independent replicates, read-out: pIC50 +/- StDev (LAPTc) (converted)

| Compound | inhibition at 30 µM [2] [%] | Max Effect (Vero) (Vero cells) | CC50 at 96 h [3, 7] [µM] | CC50 at 72 h [4, 8] [µM] | Max Effect (HepG2) (HepG2 cells) | pEC50 (HepG2) (HepG2 cells) | EC50 [5, 9] [µM] | Emax ([5]; individual replicates) [%] | EC50 [5, 10] [µM] | Max Effect (T. cruzi) ([5]; individual replicates) | Hill Slope [6, 11] | Emax [6, 11] [%] | IC50 [6, 12] [µM] | Hill Slope [6, 13] | Maximum Effect [6, 13] | Emax [6, 13] [%] | IC50 [6, 14] | IC50 [6, 15] [µM] | Hit Confirmation [6] | pEC50 (Vero) (Vero cells) | also measured |
| --- | --- | --- | --- | --- | --- | --- | --- | --- | --- | --- | --- | --- | --- | --- | --- | --- | --- | --- | --- | --- | --- |
| NC(CCc1ccccc1)P(=O)(O)CC(Cc1ccccc1)C(=O)O (stereo not drawn) [Co4] | – | – | – | – | – | – | – | – | – | – | – | – | – | – | – | – | – | – | – | – | Ki [1]: 0.013 µM |
| O=C(NO)C(NC(=O)C12CC3CC(CC(C3)C1)C2)c1ccc(-c2cc(F)c(F)c(F)c2)cc1 (stereo not drawn) [Compound 6k] | – | – | – | – | – | – | – | – | – | – | – | – | – | – | – | – | – | – | – | – | Ki [1]: 0.0289 µM |
| COc1ccc(CC(=O)Nc2nc(-c3ccccn3)cs2)c(OC)c1 [Compound 12] | 42 | 46 and 49 and 51 | 1 | > 100 | 11 and 10 | < 4.0 | 7.08 | 98 | 7.94 | 100 and 94 | 2.1 | 84 | 20 | 1.0 and 0.9 and 1.3 | 67% and 73% | 68 | 31.6 µM and 20 µM | 25.1 | confirmed | – | pEC50 (T. cruzi) ([5]; individual replicates): 5.2 |
| c1ccc(Cc2ccc(OCCn3ccnc3)cc2)cc1 [Compound 13] | 41 | 95 and 94 and 89 and 87 | 5.01 | 43.7 | 81 and 82 | 4.4 | 2.14 | 94 | 1.58 | 97 and 84 and 87 | 1.3 | 77 | 31.6 | 0.9 and 1.3 and 1.5 | 74% | 67 | 31.6 µM and 15.8 µM | 21.9 | confirmed | 5.3 and 5.4 and 5.2 | Selectivity index (fold window Tc/Vero) (Vero cells): 2.3 fold; CC50 at 72 h ([4]; HepG2 cells, read-out: CC50 (HepG2)): 43 µM; Selectivity window based on the HepG2 data (HepG2 cells; T. cruzi vs HepG2): 20 fold; EC50 ([5]; 96 h, read-out: EC50 (T. cruzi amastigotes)): 2 µM; pEC50 (T. cruzi) ([5]; individual replicates): 5.6 and 5.7 |
| N#CC(=Cc1cn(Cc2ccc(C(=O)O)o2)c2ccccc12)c1nc2ccccc2[nH]1 [Compound 15] | 39 | 63 and 36 and 65 and 66 | – | – | 2.23 and 3 | < 4.0 | – | 24 | > 50.1 | 19 and 38 | 1.5 | 92 | 12.6 | 1.7 and 1.4 and 1.5 | 87% | 88 | 25.1 µM and 31.6 µM | 22.9 | confirmed | 4.4 and < 4.3 and 4.5 and 4.3 | CC50 at 96 h [3]: 38 µM; CC50 at 72 h ([4]; two independent experiments, read-out: pCC50 (HepG2) (converted)): > 100 µM; EC50 ([5]; 96 h, read-out: pEC50 (T. cruzi) +/- StDev (converted)): > 50.1 µM |
| CCCS(=O)(=O)c1ccc(NS(=O)(=O)c2sc3ccc(Cl)cc3c2C)cc1 [Compound 24] | 29 | 92 and 90 and 88 and 91 | 11.5 | > 100 | -2 and -0.697 | < 4.0 | 14.8 | – | – | 100 and 75 and 105 and 84 | 2.4 | 96 | 31.6 | 2.4 and 2.3 and 2.6 | – | 99 | 12.6 µM and 15.8 µM | 17.8 | confirmed | 4.9 and 5.0 | pEC50 (T. cruzi) ([5]; individual replicates): 4.8 and 4.7 and 5.1 |
| NC(=O)C1Cc2ccccc2CN1C(=O)Cc1cn2ccsc2n1 (stereo not drawn) [Compound 28] | 27 | 32 and 37 and 15 and 16 | > 50.1 | > 100 | 2.59 and 4.33 | < 4.0 | > 50.1 | 27 | > 50.1 | 21 and 20 and 35 | 0.9 | 87 | 10 | 1.5 and 1.4 | 72% and 74% | 73 | 39.8 µM and 50.1 µM | 30.2 | confirmed | < 4.3 | – |
